Data published in paper PMC6120918, “Epigenetic modulator UVI5008 inhibits MRSA by interfering with bacterial gyrase” (Scientific Reports, 2018).

Columns and labels:
DNA gyrase = target: T1, DNA gyrase (Staphylococcus aureus, UniProt P0A0K8+P20831); assay: gyrase supercoiling assay of relaxed pBR322, agarose gel; type: biochemical
T1 construct: gene gyrA; recombinant DNA gyrase (A and B subunits; supercoiling assay kit); with DNA gyrase subunits A and B together (holoenzyme; target subunit not determined)

DNA gyrase subunit A = target: T2, DNA gyrase subunit A (Staphylococcus aureus, UniProt P20831); assay: gyrase supercoiling assay, positive control at […]; type: biochemical
T2 construct: gene gyrA; recombinant DNA gyrase (A and B subunits; supercoiling assay kit); with DNA gyrase subunit B
T2 sequence (P20831 whole entry): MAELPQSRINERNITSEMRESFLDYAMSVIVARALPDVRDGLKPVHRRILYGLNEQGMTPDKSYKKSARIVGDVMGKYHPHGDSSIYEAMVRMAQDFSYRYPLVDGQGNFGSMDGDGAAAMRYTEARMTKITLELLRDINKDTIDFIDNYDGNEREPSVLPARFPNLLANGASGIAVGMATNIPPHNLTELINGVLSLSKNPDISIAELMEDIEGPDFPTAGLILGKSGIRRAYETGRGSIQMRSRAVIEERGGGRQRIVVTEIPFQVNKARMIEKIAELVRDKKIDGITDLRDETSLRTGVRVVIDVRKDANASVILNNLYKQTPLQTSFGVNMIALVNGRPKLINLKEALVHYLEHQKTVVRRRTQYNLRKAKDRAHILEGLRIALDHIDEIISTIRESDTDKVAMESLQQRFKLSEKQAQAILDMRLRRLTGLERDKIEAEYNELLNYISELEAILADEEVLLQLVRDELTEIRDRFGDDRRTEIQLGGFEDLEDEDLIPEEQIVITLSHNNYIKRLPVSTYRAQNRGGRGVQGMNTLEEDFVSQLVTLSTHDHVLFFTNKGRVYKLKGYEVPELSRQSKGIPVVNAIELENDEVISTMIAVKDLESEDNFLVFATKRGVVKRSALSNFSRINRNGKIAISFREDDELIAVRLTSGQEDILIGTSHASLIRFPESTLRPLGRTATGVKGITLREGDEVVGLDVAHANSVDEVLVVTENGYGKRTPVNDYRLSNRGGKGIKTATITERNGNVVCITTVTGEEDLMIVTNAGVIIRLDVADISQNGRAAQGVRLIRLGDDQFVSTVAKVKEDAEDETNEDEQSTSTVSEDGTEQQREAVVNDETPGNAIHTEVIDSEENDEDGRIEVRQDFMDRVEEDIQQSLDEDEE

T1 sequence (P20831 whole entry): as above
T1 sequence (P0A0K8 2-644): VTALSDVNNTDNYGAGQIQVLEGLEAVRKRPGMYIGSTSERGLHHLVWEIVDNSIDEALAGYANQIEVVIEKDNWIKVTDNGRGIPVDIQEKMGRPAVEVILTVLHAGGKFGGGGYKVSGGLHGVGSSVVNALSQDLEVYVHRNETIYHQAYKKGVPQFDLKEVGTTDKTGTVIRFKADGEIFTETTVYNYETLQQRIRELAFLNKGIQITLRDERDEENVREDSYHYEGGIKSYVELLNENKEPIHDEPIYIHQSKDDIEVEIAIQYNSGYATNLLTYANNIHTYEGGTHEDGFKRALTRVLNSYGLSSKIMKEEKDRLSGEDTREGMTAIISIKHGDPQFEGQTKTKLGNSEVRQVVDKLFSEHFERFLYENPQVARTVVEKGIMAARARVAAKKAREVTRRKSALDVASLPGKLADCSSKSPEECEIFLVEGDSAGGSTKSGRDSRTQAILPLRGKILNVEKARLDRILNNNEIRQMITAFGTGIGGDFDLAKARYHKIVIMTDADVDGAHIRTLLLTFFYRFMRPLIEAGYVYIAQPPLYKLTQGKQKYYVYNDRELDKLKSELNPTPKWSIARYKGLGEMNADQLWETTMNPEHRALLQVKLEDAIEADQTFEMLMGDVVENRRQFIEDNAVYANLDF

SMILES	IC50 (DNA gyrase) [µM]	gyrase supercoiling assay, positive control at 30 μM (DNA gyrase subunit A)
O=C(NCCSSCCNC(=O)/C(Cc1c[nH]c2ccc(Br)cc12)=N/O)/C(Cc1c[nH]c2ccc(Br)cc12)=N/O [UVI5008]	20.4	
O=C(O)c1cn(C2CC2)c2cc(N3CCNCC3)c(F)cc2c1=O [ciprofloxacin]		Ciprofloxacin was used as the positive control since it blocks gyrase acting on the A subunit
